Measurements taken from ChEMBL document CHEMBL6109153, “Development of Membrane-Targeting Osthole Derivatives Containing Pyridinium Quaternary Ammonium Moieties with Potent Anti-Methicillin-Resistant Staphylococcus aureus Properties” (J Med Chem, 2025).
Active and inactive are the calls of the source. The calls are words filed in the database; no cut-off is given here.

What was measured:
Staphylococcus aureus [1] = assay: Disruption of cell membrane in methicillin-resistant Staphylococcus aureus M11 assessed as wrinkling in cell membrane at 4 ug/ml incubated for 4 hrs by SEM analysis; format: functional, organism-based; conditions: dose 4.0 µg/ml
Staphylococcus aureus [2] = assay: Induction of ROS production in methicillin-resistant Staphylococcus aureus M11 assessed as fold increase at 32 ug/ml incubated for 1 hr by DCFH-DA probe based analysis relative to control; format: functional; conditions: dose 32 µg/ml
[3] = Toxicity in BALB/c mouse assessed as change in blood routine parameters at 10 mg/kg, ip measured for 7 days; format: organism-based; conditions: in vivo, 168 h, time 7 day
Staphylococcus aureus [4] = assay: Antibacterial activity against methicillin-resistant Staphylococcus aureus M11 infected in BALB/c mouse model of Sepsis assessed as restoration of smoothness in outer skin at 8 mg/kg measured after 24 hrs; format: functional, organism-based
Staphylococcus aureus [5] = assay: Antibacterial activity against methicillin-resistant Staphylococcus aureus M22 incubated for 16 to 20 hrs by broth microdilution method; format: functional; conditions: time 16-20 hrs
Staphylococcus aureus [6] = assay: Disruption of cell membrane in methicillin-resistant Staphylococcus aureus M11 assessed as increase in red fluorescence in nuclei at 4 ug/ml incubated for 4 hrs by DAPI/PI staining based analysis; format: functional, organism-based; conditions: dose 4.0 µg/ml
Staphylococcus aureus [7] = assay: Induction of cell permeability in methicillin-resistant Staphylococcus aureus M11 assessed as fold increase in fluorescence intensity at 32 times MIC by SYTOX Green dye based analysis relative to control; format: functional
[8] = Cytotoxicity against human L02 cells assessed as cell survival rate at 32 times MIC incubated for 24 hrs by CCK8 assay; format: toxicity, cell-based; conditions: read-out: Survival
Staphylococcus aureus [9] = assay: Induction of cell permeability in methicillin-resistant Staphylococcus aureus M11 assessed as increase in fluorescence intensity by SYTOX Green dye based analysis; format: functional, organism-based
Staphylococcus aureus [10] = assay: Antibacterial activity against methicillin-resistant Staphylococcus aureus M23 incubated for 16 to 20 hrs by broth microdilution method; format: functional; conditions: time 16-20 hrs
[11] = Toxicity in KM mouse assessed as abnormality in liver at 20 mg/kg, sc by H and E staining based analysis; format: organism-based; conditions: in vivo
Staphylococcus aureus [12] = assay: Disruption of cell membrane in methicillin-resistant Staphylococcus aureus M11 assessed as fold increase in protein leakage at 4 ug/ml incubated for 4 hrs by micro-spectrophotometric analysis relative to control; format: functional; conditions: dose 4 µg/ml
Staphylococcus aureus [13] = assay: Induction of bacterial eradication in methicillin-resistant Staphylococcus aureus M11 at 4 times MIC incubated for 8 hrs by time-kill assay; format: functional, organism-based
Staphylococcus aureus [14] = assay: Antibacterial activity against methicillin-resistant Staphylococcus aureus M12 incubated for 16 to 20 hrs by broth microdilution method; format: functional; conditions: time 16-20 hrs
Staphylococcus aureus [15] = assay: Antibacterial activity against methicillin-resistant Staphylococcus aureus M21 incubated for 16 to 20 hrs by broth microdilution method; format: functional; conditions: time 16-20 hrs
Staphylococcus aureus [16] = assay: Antibacterial activity against methicillin-resistant Staphylococcus aureus M11 infected in BALB/c mouse model of Sepsis assessed as reduction in bacterial load in skin tissues at 4 mg/kg measured after 24 hrs; format: functional
Staphylococcus aureus [17] = assay: Antibacterial activity against methicillin-resistant Staphylococcus aureus M11 infected in BALB/c mouse model of Sepsis assessed as reduction in swelling in inner epidermal abscesses at 4 mg/kg measured after 24 hrs; format: functional, organism-based
[18] = Toxicity in BALB/c mouse assessed as glossy fur at 5 to 40 mg/kg, ip measured for 7 days; format: organism-based; conditions: in vivo, 168 h, dose 5-40 mg/kg, time 7 day
Staphylococcus aureus [19] = assay: Antibacterial activity against methicillin-resistant Staphylococcus aureus M11 up to 128 ug/ml in presence of 32 ug/ml peptidoglycan incubated for 16 to 18 hrs; format: functional; conditions: dose <= 128 µg/ml, time 16-18 hrs
Staphylococcus aureus [20] = assay: Induction of ROS production in methicillin-resistant Staphylococcus aureus M11 incubated for 1 hr by DCFH-DA probe based analysis; format: functional, organism-based; conditions: dose <= 32.0 µg/ml
[21] = Hemolytic activity against sheep erythrocytes; format: toxicity, cell-based, Ovis aries, Erythrocyte
Staphylococcus aureus [22] = assay: Disruption of cell membrane in methicillin-resistant Staphylococcus aureus M11 assessed as roughness in cell membrane at 4 ug/ml incubated for 4 hrs by SEM analysis; format: functional, organism-based; conditions: dose 4.0 µg/ml
Staphylococcus aureus [23] = assay: Antibacterial activity against methicillin-resistant Staphylococcus aureus M11 infected in BALB/c mouse model of Sepsis assessed as reduction in bacterial count in skin tissues at 4 mg/kg measured after 24 hrs relative to control; format: functional; set-up: scale not given: the % may be the effect or the level left
[24] = Toxicity in BALB/c mouse assessed as lesions in tissues of organs at 10 mg/kg, ip measured for 7 days by H and E staining based analysis; format: organism-based; conditions: in vivo, 168 h, time 7 day
[25] = Toxicity in BALB/c mouse model of Sepsis infected with methicillin-resistant Staphylococcus aureus M11 assessed as lesions in liver at 4 to 8 mg/kg measured after 24 hrs by H and E staining based analysis; format: organism-based; conditions: in vivo, dose 4-8 mg/kg
Staphylococcus aureus [26] = assay: Antibacterial activity against methicillin-resistant Staphylococcus aureus M11 up to 128 ug/ml in presence of 128 ug/ml peptidoglycan incubated for 16 to 18 hrs; format: functional; conditions: dose <= 128 µg/ml, time 16-18 hrs
[27] = Toxicity in BALB/c mouse assessed as adverse reactions at 5 to 40 mg/kg, ip measured for 7 days; format: organism-based; conditions: in vivo, 168 h, dose 5-40 mg/kg, time 7 day
Staphylococcus aureus [28] = assay: Antibacterial activity against methicillin-resistant Staphylococcus aureus M11 infected in BALB/c mouse model of Sepsis assessed as reduction in IL-6 level measured after 24 hrs; format: functional, organism-based; conditions: dose 4-8 mg/kg
Staphylococcus aureus [29] = assay: Bactericidal activity against methicillin-resistant Staphylococcus aureus M11 at 8 ug/ml measured up to 6 hrs in presence of 50% plasma; format: functional, organism-based; conditions: dose 8.0 µg/ml
[30] = Toxicity in KM mouse assessed as animal death at 40 mg/kg, sc; format: organism-based; conditions: in vivo
[31] = Toxicity in KM mouse assessed as erythema on dorsal skin at 40 mg/kg, sc; format: organism-based; conditions: in vivo
[32] = Binding affinity to phosphatidylglycerol assessed as change in enthalpy by ITC analysis
Staphylococcus aureus [33] = assay: Antibacterial activity against methicillin-resistant Staphylococcus aureus M11 infected in BALB/c mouse model of Sepsis assessed as vacuolar degeneration in renal epithelial cells at 20 mg/kg, ip measured after 48 hrs; format: functional, organism-based
[34] = Toxicity in KM mouse assessed as erythema on dorsal skin at <=30 mg/kg, sc; format: organism-based; conditions: in vivo
[35] = Toxicity in BALB/c mouse model of Sepsis infected with methicillin-resistant Staphylococcus aureus M11 assessed as survival rate at 20 mg/kg, ip measured after 7 days; format: organism-based; conditions: in vivo, 168 h, time 7 day
[36] = Toxicity in BALB/c mouse model of Sepsis infected with methicillin-resistant Staphylococcus aureus M11 assessed as survival rate at 10 mg/kg, ip measured after 7 days; format: organism-based; conditions: in vivo, 168 h, time 7 day
[37] = Toxicity in BALB/c mouse assessed as obvious damage in tissues of organs at 30 mg/kg, ip measured for 7 days by H and E staining based analysis; format: organism-based; conditions: in vivo, 168 h, time 7 day
[38] = Toxicity in BALB/c mouse assessed as change in blood routine parameters at 30 mg/kg, ip measured for 7 days; format: organism-based; conditions: in vivo, 168 h, time 7 day
[39] = Toxicity in KM mouse assessed as abnormality in heart at 30 mg/kg, sc by H and E staining based analysis; format: organism-based; conditions: in vivo
[40] = Toxicity in KM mouse assessed as abnormality in spleen at 30 mg/kg, sc by H and E staining based analysis; format: organism-based; conditions: in vivo

SMILES	Activity (Staphylococcus aureus [1])	fold change (FC) (Staphylococcus aureus [2])	Activity (Staphylococcus aureus [4])	MIC (Staphylococcus aureus [5]) [µg/mL]	Activity (Staphylococcus aureus [6])	fold change (FC) (Staphylococcus aureus [7])	viability at 24 h, 32 times MIC [8] [%]	Activity (Staphylococcus aureus [9])	MIC (Staphylococcus aureus [10]) [µg/mL]	fold change (FC) (Staphylococcus aureus [12])	Activity (Staphylococcus aureus [13])	MIC (Staphylococcus aureus [14]) [µg/mL]	MIC (Staphylococcus aureus [15]) [µg/mL]	Activity (Staphylococcus aureus [16]) [log10CFU/g]	Activity (Staphylococcus aureus [17])	Activity [18]	MIC (Staphylococcus aureus [19]) [µg/mL]	Activity (Staphylococcus aureus [20])	HC50 [21] [µg/mL]	Activity (Staphylococcus aureus [22])	further results
CCCCCNC(=O)C[n+]1ccc(SCCCCCOc2ccc3ccc(=O)oc3c2CC=C(C)C)cc1.[Br-]	Active	1.8	Active	0.5	Active	~10	> 80	Dose-dependent-effect	0.5	~4	Active	1	0.5	1.882	Active	Non-toxic	1	Dose-dependent-effect	> 160	Active	Activity [3]: Non-toxic; Activity [11]: Non-toxic; Activity (Staphylococcus aureus [23]): 98.702%; Activity [24]: Non-toxic; Activity [25]: Non-toxic; MIC (Staphylococcus aureus [26]): 16 µg/mL; Activity [27]: Non-toxic; Activity (Staphylococcus aureus [28]): Dose-dependent-effect; Compound Has Slightly Greater Efficacy Than Vancomycin; Activity (Staphylococcus aureus [29]): Active; Activity [30]: Non-toxic
CC(C)=CCc1c(OCCCCSc2cc[n+](CC(=O)N(CC(C)C)CC(C)C)cc2)ccc2ccc(=O)oc12.[Br-]	Active	2	Active	0.5	Active	~10	> 80	Dose-dependent-effect	0.5	~4	Active	1	0.5	1.948	Active	Non-toxic	1	Dose-dependent-effect	> 160	Active	Activity [31]: Toxic; deltaH [32]: -2.72 kcal/mol; Activity (Staphylococcus aureus [33]): Active; Improvement Was Comparable To That In Vancomycin Group; Activity [34]: Non-toxic; Survival [35]: 66.7%; Activity (Staphylococcus aureus [23]): 98.886%; Activity [25]: Non-toxic; MIC (Staphylococcus aureus [26]): 16 µg/mL; Survival [36]: 44.4%; Activity [37]: Non-toxic; Activity [27]: Non-toxic; Activity (Staphylococcus aureus [28]): Dose-dependent-effect; Compound Has Slightly Greater Efficacy Than Vancomycin; Activity (Staphylococcus aureus [29]): Active; Activity [38]: Non-toxic; Activity [30]: Non-toxic; Activity [39]: Non-toxic; Activity [40]: Non-toxic
